In test [1] the test system is HeLa. Kind of test: Induction of apoptosis in human HeLa cell line at 200 uM after 24 hrs by annexin V/conjugated 7-AAD nexin assay. Format: functional.
For test [2], the system named is HeLa. Kind of test: Downregulation of c-MYC gene expression in human HeLa cell line at 200 uM after 24 hrs by RT-PCR analysis. Format: functional.
The subject of test [3] is Nucleic Acid. Kind of test: Binding affinity to 22 mer c-MYC DNA G-quadruplex assessed as change in melting temperature at 0.2 uM by FRET assay. Type of test: nucleic-acid assay.
The test system of test [4] is Nucleic Acid. Description: Binding affinity to 22 mer c-MYC DNA G-quadruplex assessed as change in melting temperature at 0.4 uM by FRET assay. Type of test: nucleic-acid assay.
The subject of test [5] is Nucleic Acid. Description: Binding affinity to 22 mer c-MYC DNA G-quadruplex assessed as change in melting temperature at 0.8 uM by FRET assay. Type of test: nucleic-acid assay.
In test [6] the test system is Nucleic Acid. Description: Binding affinity to 22 mer c-MYC DNA G-quadruplex assessed as change in melting temperature at 1.2 uM by FRET assay. Type of test: nucleic-acid assay.
In test [7] the test system is Nucleic Acid. Description: Binding affinity to 22 mer c-MYC DNA G-quadruplex assessed as induction of quadruplex folding at 5 to 10 uM by CD spectroscopy. Type of test: nucleic-acid assay.
The test system of test [8] is Calf thymus DNA. Description: Binding affinity to calf thymus DNA assessed as change in melting temperature at 0.2 to 1.6 uM by […]. Type of test: nucleic-acid assay. The settings on record: Bos taurus.
Test [9] has as its system Nucleic Acid. Description: Binding affinity to 22 mer c-MYC G-quadruplex by isothermal titration calorimetry. Format: nucleic-acid assay. In general terms: Isothermal titration calorimetry measures the heat released or taken up as one component is titrated into another.
The target of test [10] is Nucleic Acid. Kind of test: Binding affinity to 22 mer c-MYC G-quadruplex assessed as effect on ligand-telomeric complex formation by […]. Format: nucleic-acid assay.
The subject of test [11] is HeLa. Description: Cytotoxicity against human HeLa cells at 100 uM after 5 days by propidium iodide staining-based flow cytometry. Type of test: functional, cell-based. (A flow cytometer gives signals particle by particle.)
The test system of test [12] is HeLa. Kind of test: Downregulation of c-MYC gene expression in human HeLa cell line at 100 uM after 24 hrs by RT-PCR analysis. Format: functional.

Activity calls are given as the source filed them. The calls are words filed in the database; no cut-off is given here.

Broadly, the inhibition is the percentage by which the read-out fell short of the control. Lower therefore signals a response near the control. For orientation: Kd means a measure of binding affinity in units of concentration.

Take `NCC1=C2CNC(=O)C3=CC(CN)=C(CNC(=O)c4cc(CN)c(o4)CNC(=O)C(=C1)O2)O3.O=C(O)C(F)(F)F.O=C(O)C(F)(F)F.O=C(O)C(F)(F)F`: the Activity in test [1] stood at 18%. Moreover, the inhibition at 200 µM in [2] was 50%. Besides, the Tm worked out at 2 °C in test [3], 4 °C in [4], 6 °C in [5] and 8 °C in [6]. The outcome in test [7] was Active. Besides, the outcome in test [8] and in [11] was inactive. The compound further gave a K in test [9] of 3.21 ×10⁵ /M. Further, the equilibrium dissociation constant (Kd) in test [10] is 1200 nM.
`NCCC(=O)NCC1=C2CNC(=O)C3=CC(CNC(=O)CCN)=C(CNC(=O)c4cc(CNC(=O)CCN)c(o4)CNC(=O)C(=C1)O2)O3.O=C(O)C(F)(F)F.O=C(O)C(F)(F)F.O=C(O)C(F)(F)F` came in with an Activity in [1] of 22%. Testing at 100 µM in [12] gave an inhibition of 50%. Further, the Tm was 5 °C in [3], 12 °C in [4], 15 °C in test [5] and 20 °C in [6]. Moreover, the outcome in [7] was Active. The outcome in test [8] and in [11] was inactive. The compound also yielded a K in test [9] of 5.7 ×10⁵ /M. Further, the Kd in test [10] stood at 2100 nM.

These data come from ChEMBL document CHEMBL1208757, “Furan based cyclic homo-oligopeptides bind G-quadruplex selectively and repress c-MYC transcription” (Bioorg Med Chem Lett, 2010).
